Laboratory results reported in patent US20240082271A1, “Methods of Treatment of Fibrotic Diseases” (PHOST’IN THERAPEUTICS, priority 2021, published 2024).

Experiments:
NIH3T3 fibroblasts = experiment: Wound healing (scratch) inhibition test in presence of TGFβ; assay type: cell-based; settings: 1 μM tested compound, 24 h, in presence of TGFβ 5 ng/ml
Protocol: NIH3T3 fibroblasts were seeded at 40 000 cells per cm2 in a 24 well plate, DMEM+10% FBS.
Before wound/treatment, cells were washed twice in DMEM without serum then incubated in the appropriate condition DMEM+2.5% FBS, TGFβ+/−, PST3.1+/−.
TGFβ 5 ng/ml; PST3.1 1 μM, n=6 wells per treatment.
At t0, cell layer is scratched using a needle and observed under microscope to take 3 pictures per well using a scale measure referential to measure width of the scratch using imageJ software.
After 24 h of incubation in the desired condition, scratch is measured under microscope by taking 3 pictures at the same scale using the same referential.
Data are treated by calculating percentage of closing.

[1] = test system: STAM NASH model mice (liver fibrosis); experiment: STAM NASH model mice, Sirius red-stained liver fibrosis area and tolerability; assay type: in vivo; settings: for Sirius red positive area (fibrosis area) of liver sections: PO 6-9 wks of age, compound 3.1 15 mg/kg BID, Telmisartan 10 mg/kg QD, mean±SD, p<0.01 vs vehicle
Text: The STAM model (developed and standardized by SMC Laboratories, Japan https://www.smccro-lab.com/) is a model that recapitulates the same disease progression as human nonalcoholic steatohepatitis (NASH) and hepatocellular carcinoma (HCC): in 25% of affected patients (i.e. 20%-25% of the adult population), nonalcoholic fatty liver disease progresses to NASH, which increases the risk for the development of cirrhosis, liver failure, and hepatocellular carcinoma. In patients with NASH, liver fibrosis is the main determinant of mortality (https://doi.org/10.1053/j.gastro.2019.11.311). In this model, male C57BL/6 mice aged two days are given a single dose of streptozotocin to reduce insulin secretory capacity. When the mice turn four weeks of age they start a high-fat diet feeding. This model has a background of late type 2 diabetes which progresses into fatty liver, NASH, fibrosis and consequently liver cancer (HCC). Compared to other NASH-HCC model mice, the disease progresses in a relatively short period of time, and liver cancer is developed in 100% of animals at 20 weeks of age.
C57BL/6JJmsSlc mice (14-day-pregnant female) were obtained from Japan SLC, Inc. (Japan). Two days after birth, NASH is induced in male mice by a single subcutaneous injection of 200 μg streptozotocin (STZ, Sigma-Aldrich, USA) solution and feeding with high fat diet (HFD, 57 kcal % fat, Cat #HFD32, CLEA Japan, Inc., Japan) after 4 weeks of age. Sterilized solid HFD is provided ad libitum, and replaced once every 2 days according to the manufacturer's instructions. Then, NASH model mice are divided into 3 randomized groups of 10 mice at 6 weeks of age based on their body weight the day before the start of treatment. The randomization was performed by body weight-stratified random sampling using Excel software. NASH model mice were stratified by their body weight to get SD and the difference in the mean weights among groups as small as possible.
Group 1: Vehicle (10 NASH mice orally administered with Placebo nanosuspension in a volume of 10 mL/kg twice daily from 6 to 9 weeks of age).
Group 2: Compound 3.1 (PST3.1) ((10 NASH mice orally administered with compound 3.1 nanosuspension at a dose of 15 mg/kg in a volume of 10 mL/kg twice daily (2*15 mg/kg/day) from 6 to 9 weeks of age).
Group 3: Telmisartan (10 NASH mice will be orally administered vehicle supplemented with Telmisartan at a dose of 10 mg/kg once daily in a volume of 10 mL/kg from 6 to 9 weeks of age). Vehicle and compound 3.1 were provided by Phost'in Therapeutics SAS. Telmisartan (Micardis®) was purchased from Boehringer Ingelheim GmbH (Germany).
After 3 weeks of treatment mice were sacrificed, whole liver were collected and washed with cold saline. Individual whole liver (parietal side and visceral side) was taken photos. Liver weight were measured and liver-to-body weight ratio were calculated. The left lateral lobes of livers will be separated and dissected as described in FIG. 6, and stored as described below: • a: Liver specimens were stored at −80° C. embedded in Optimal Cutting Temperature (O.C.T., Sakura Finetek Japan, Japan) compound. • b: Liver specimens were fixed in Bouin's solution (Sigma-Aldrich, Japan) for 24 hours. After fixation, these specimens were proceeded to paraffin embedding for Sirius red-staining. • c: Liver specimens were snap frozen in liquid nitrogen and stored at −80° C.
Sections were cut from paraffin blocks of liver tissue using the rotary microtome (Leica Microsystems). […]

[2] = test system: SNx rats (renal fibrosis); experiment: Kidney fibrosis model: 5/6 subtotal nephrectomy (SNx) rats, histological and immunohistochemical staining of kidney sections; assay type: in vivo, Sprague-Dawley rats
Text: Male Sprague-Dawley rats underwent ⅚ subtotal nephrectomy (SNx) and were used as the kidney fibrosis model, since SNx rats developed tubulointerstitial fibrosis. During this surgery, the right kidney is removed and 2 of the 3 branches of the left renal artery are ligated in order to necrose ⅔ of the kidney. The control kidney is right kidney before nephrectomy. Tubulointerstitial renal fibrosis inevitably leads to renal function deterioration and failure, independently of the primary renal disease. It is worth noting that in SNx rats, plasmatic creatinine concentration increases from 25.7±1.3 μM to 120.0±33.0 μM. Sirius red staining highlights fibrosis by staining collagens in paraffin-embedded kidney tissue sections. Five micrometer-thick sections were cut and mounted on glass slides. Slides were deparaffinized and stained with Sirius red for evaluation of collagen localization. […] The sections were mounted in Entelan mounting medium and examined under microscope. For each sample, quantification was performed with Image J software on pictures taken from 10 fields of kidney sections at 200-fold magnification. The staining area was measured on kidney section fields. Immunohistochemical analyses of kidney sections were also performed using paraffin sections. The primary antibody, anti-Mgat5 was incubated overnight at 4° C. Revelation was performed with Universal vectastain ABC kit and ImmPACT AE following the instructions of suppliers, Vector Laboratories. Then, the sections were mounted in an aqueous mounting medium, VectaMount™ AQ and examined under microscope (Nikon Eclipse TE300). Quantification was carried out as for histological staining.
Compound 3.1 was orally administered to control rats and SNx rats (as above described) at 20 mg/kg daily per 28 days. A control was carried out with a vehicle (without compound 3.1) administered in the same manner as compound 3.1. Sprague Dawley rats will be used. The rats will be fed ad libitum and will be placed in a 12 hour light, 12 hour dark cycle. They will be divided 3 per cage. Some rats undergo ⅚ subtotal nephrectomy (SNx) to develop chronic kidney failure which will lead to the development of renal fibrosis. The 3.1a treatment was administered to the rats on the day of nephrectomy and continued for the entire protocol. It is delivered as a nanosuspension diluted in drinking water. Control rats receive the solvent alone (placebo). Histological and immunohistochemical methods were monitored as described in example 1.

MGAT5 activity = experiment: L-PHA lectin staining of kidney sections as glycans marker of MGAT5 activity in SNx rats; assay type: in vivo, Sprague-Dawley rats; settings: treated SNx rats, 20 mg/kg daily oral, 4 weeks
Text: Male Sprague-Dawley rats underwent ⅚ subtotal nephrectomy (SNx) and were used as the kidney fibrosis model, since SNx rats developed tubulointerstitial fibrosis. During this surgery, the right kidney is removed and 2 of the 3 branches of the left renal artery are ligated in order to necrose ⅔ of the kidney. The control kidney is right kidney before nephrectomy. Tubulointerstitial renal fibrosis inevitably leads to renal function deterioration and failure, independently of the primary renal disease. It is worth noting that in SNx rats, plasmatic creatinine concentration increases from 25.7±1.3 μM to 120.0±33.0 μM. Sirius red staining highlights fibrosis by staining collagens in paraffin-embedded kidney tissue sections. Five micrometer-thick sections were cut and mounted on glass slides. […] For each sample, quantification was performed with Image J software on pictures taken from 10 fields of kidney sections at 200-fold magnification. The staining area was measured on kidney section fields. […] Quantification was carried out as for histological staining.
Compound 3.1 was orally administered to control rats and SNx rats (as above described) at 20 mg/kg daily per 28 days. […] Histological and immunohistochemical methods were monitored as described in example 1.
Glycosylation resulting from MGAT5 activity will be specifically measured by L-PHA lectin staining. […]

[3] = 15 mg/kg PO BID, 3 weeks of treatment

SMILES: c1ccc(CN[C@@H]2[C@@H](OCc3ccccc3)[C@H](OCc3ccccc3)[C@@H](COCc3ccccc3)O[P@@]2c2ccccc2)cc1 [Compound 4.6, (2S,3S,4S,5S,6R)-3-(benzylamino)-4,5-bis(benzyloxy)-6-((benzyloxy)methyl)-2-phenyl-1,2-oxaphosphinane]
- % inhibition of wound healing (NIH3T3 fibroblasts): 29.3%

SMILES: CC1(C)OC[C@H](C2O[P@@](=O)(c3ccccc3)[C@H](NCc3ccccc3)[C@H]3OC(C)(C)O[C@@H]23)O1 (stereo partly drawn) [Compound 3.3, (3aR,6S,7S,7aS)-7-(benzylamino)-4-((R)-2,2-dimethyl-1,3-dioxolan-4-yl)-2,2-dimethyl-6-phenyltetrahydro-[1,3]dioxolo[4,5-d][1,2]oxaphosphinine 6-oxide]
- % inhibition of wound healing (NIH3T3 fibroblasts): 29.8%

SMILES: CC(=O)N[C@@H]1[C@@H](OCc2ccccc2)[C@H](OCc2ccccc2)[C@@H](COCc2ccccc2)O[P@@]1(=O)c1ccccc1 [Compound 2.2, N-((2S,3S,4S,5S,6R)-4,5-bis(benzyloxy)-6-((benzyloxy)methyl)-2-oxido-2-phenyl-1,2-oxaphosphinan-3-yl)acetamide]
- % inhibition of wound healing (NIH3T3 fibroblasts): 28.7%

SMILES: CC1(C)OC[C@H](C2O[P@](=O)(c3ccccc3)[C@@H](OC(=O)c3ccccc3)[C@H]3OC(C)(C)O[C@@H]23)O1 (stereo partly drawn) [Compound 4.2, (3aR,6R,7R, 7aS)-4-((R)-2,2-dimethyl-1,3-dioxolan-4-yl)-2,2-dimethyl-6-oxido-6-phenyltetrahydro-[1,3]dioxolo[4,5-d][1,2]oxaphosphinin-7-yl benzoate]
- % inhibition of wound healing (NIH3T3 fibroblasts): 17.2%

SMILES: CCCc1nc2c(C)cc(-c3nc4ccccc4n3C)cc2n1Cc1ccc(-c2ccccc2C(=O)O)cc1 [Telmisartan, reference compound]
- Sirius red positive area (fibrosis area) of liver sections [1]: 0.50±0.24%

SMILES: O=[P@@]1(c2ccc(Oc3ccccc3)cc2)O[C@H](COCc2ccccc2)[C@@H](OCc2ccccc2)[C@H](OCc2ccccc2)[C@H]1O [Compound 3.0, (2S,3S,4S,5S,6R)-4,5-bis(benzyloxy)-6-((benzyloxy)methyl)-3-hydroxy-2-(4-phenoxyphenyl)-1,2-oxaphosphinane 2-oxide]
- % inhibition of wound healing (NIH3T3 fibroblasts): 23.0%

SMILES: O=[P@@]1(c2ccccc2)O[C@H](COCc2ccccc2)[C@@H](OCc2ccccc2)[C@H](OCc2ccccc2)C1O (stereo partly shown) [Compound 3.1, 3-Hydroxy-4,5-bis-benzyloxy-6-benzyloxymethyl-2-phenyl-2-oxo-2λ5-[1,2]oxaphosphinane]
- fibrosis, Sirius red staining area of kidney sections ([2]; SNx rats treated, 20 mg/kg daily oral, 4 weeks): 5.8±1.2%
- plasma/serum creatinine concentration ([2]; SNx treated rats vs SNx rats on placebo, 20 mg/kg daily oral, at 4 weeks): lower serum creatinine
- treatment effect on collagen III in controls ([2]; control (non-nephrectomized) rats, 20 mg/kg daily oral, 4 weeks): no treatment effect
- effect of treatment on fibrosis (Sirius red) ([2]; healthy animals or SNx, 4 weeks): no significant effect
- collagen I expression, kidney immunostaining ([2]; treated SNx rats, 20 mg/kg daily oral, 4 weeks, p=0.014 vs untreated SNx): 1.3±0.3%
- collagen IV expression, kidney immunostaining ([2]; treated SNx rats, 20 mg/kg daily oral, 4 weeks, p=0.015 vs untreated SNx): 6.4±0.3%
- collagen III level, kidney immunostaining ([2]; treated SNx rats, 20 mg/kg daily oral, 4 weeks, p=0.27 vs untreated SNx): 4.0±0.3%
- PHA-L staining of kidney sections (MGAT5 activity): 5.1±0.5%
- % inhibition of wound healing (NIH3T3 fibroblasts): 42.0%
- body weight loss [1, 3]: no body weight loss
- clinical signs [1, 3]: no clinical signs
- death [1, 3]: no death
- Sirius red positive area (fibrosis area) of liver sections [1]: 0.47±0.12%
